According to US5464617A, “β-lactam compounds” (Hoffmann-La Roche Inc., priority 1994, dated 1995):
Where a name gives a salt, the structure may show the parent alone.

Assays:
[1] = tested on: Citrobacter freundii 1982; assay: MIC in vitro of a 1:4 combination of ceftriaxone with a compound of formula I (Test D); format: cell-based; details: test D
Experimental: The minimum inhibitory concentration in vitro ([…]) of a 1:4 combination of ceftriaxone with a compound of formula I against Citrobacter freundii 1982 was measured and compiled in Table 2 hereinafter.

E. coli 1346 = assay: Antibacterial activity of the products per se, serial dilution method in liquid medium (Test E); format: cell-based; details: test E, product per se
Excerpt: The antibacterial activity of the products per se is illustrated on the basis of Table 3 hereinafter, the minimum inhibitory concentration […] in vitro against E. coli 1346 being determined using the serial dilution method in liquid medium: […]

[2] = Table 4, 1:4 combination of ceftriaxone with the compound
[3] = Table 5, particularly preferred products, 1:4 combination with ceftriaxone
[4] = Table 5, particularly preferred products

Row | SMILES | MIC C. freundii 1982 (D) [1, 2] [µg/mL] | MIC E. coli 1346 (E) (E. coli 1346; Table 4) [µg/mL] | MIC C. freundii 1982 (D) [1, 3] [µg/mL] | MIC E. coli 1346 (E) (E. coli 1346; [4]) [µg/mL]
1 | Cc1nnc(SCC2=C(C(=O)[O-])N3C(=O)[C@@H]4[C@H]3[C@H](C2)CN4C(=O)C[n+]2cccc(C(N)=O)c2)s1 [65(d), (1aS,3aR,6bR)-2-(3-Carbamoyl-pyridin-1-ylioacetyl)-5-(5-methyl-1,3,4-thiadiazol-2-ylsulphanylmethyl)-1-oxo-1a,2,3,3a,4,6b-hexahydro-1H-2,6a-diazacyclobut[cd]indene-6-carboxylic acid sodium salt] | 2 | 16 |  | 
2 | Cc1nnc(SCC2=C(C(=O)O)N3C(=O)[C@@H]4[C@H]3[C@H](C2)CN4C=O)s1 [65(e), (1aS,3aR,6bR)-2-Formyl-5-(5-methyl-1,3,4-thiadiazol-2-ylsulphanylmethyl)-1-oxo-1a,2,3,3a,4,6b-hexahydro-1H-2,6a-diazacyclobut[cd]indene-6-carboxylicacid sodium salt] | 0.5 | 1 |  | 
3 | Cc1nnc(SCC2=C(C(=O)O)N3C(=O)[C@@H]4[C@H]3[C@H](C2)CN4C(=O)CSc2nnc(N)s2)s1 [65(f), (1aS,3aR,6bR)-2-(2-Amino-1,3,4-thiadiazol-5-ylsulphanylacetyl)-5-(5-methyl-1,3,4-thiadiazol-2-ylsulphanylmethyl)-1-oxo-1a,2,3,3a,4,6b-hexahydro-1H-2,6a-diazacyclobut[cd]indene-6-carboxylic acid sodium salt] | 0.5 | 2 |  | 
4 | Cc1nnc(SCC2=C(C(=O)O)N3C(=O)[C@@H]4[C@H]3[C@H](C2)CN4C(=O)CSCC(N)=O)s1 [65(g), (1aS,3aR,6bR)-2-Carbamoylmethylsulphanylacetyl-5-(5-methyl-1,3,4-thiadiazol-2-ylsulphanylmethyl)-1-oxo-1a,2,3,3a,4,6b-hexahydro-1H-2,6a-diazacyclobut[cd]indene-6-carboxylic acid sodium salt] | 0.5 | 8 |  | 
5 | CC(=O)N1C[C@H]2CC(CSc3nc(-c4cccnc4)cs3)=C(C(=O)O)N3C(=O)[C@@H]1[C@@H]23 [67(a), (1aS,3aR,6bR)-2-Acetyl-1-oxo-5-(4-pyridin-3-yl-thiazol-2-ylsulphanylmethyl)-1a,2,3,3a,4,6b-hexahydro-1H-2,6a-diazacyclobut[cd]indene-6-carboxylic acid sodium salt] | 8 | 0.5 |  | 
6 | O=C(O)C1=C(CSc2nc(-c3cccnc3)cs2)C[C@@H]2CN(C(=O)C(F)(F)F)[C@@H]3C(=O)N1[C@H]23 [67(b), (1aS,3aR,6bR)-1-Oxo-5-(4-pyridin-3-yl-thiazol-2-ylsulphanylmethyl)-2-trifluoroacetyl-la,2,3,3a,4,6b-hexahydro-1H-2,6a-diazacyclobut[cd]indene-6-carboxylic acid sodium salt] | 8 | 4 |  | 
7 | CC(=O)N1C[C@H]2CC(CSc3nnnn3CC(N)=O)=C(C(=O)O)N3C(=O)[C@@H]1[C@@H]23 [70(a), (1aS,3aR,6bR)-2-Acetyl-5-(1-carbamoylmethyl-1H-tetrazol-5-ylsulphanylmethyl)-1-oxo-1a,2,3,3a,4,6b-hexahydro-1H-2,6a-diazacyclobut[cd]indene-6-carboxylic acid sodium salt] |  |  | 0.5 | 1
8 | NC(=O)Cn1nnnc1SCC1=C(C(=O)O)N2C(=O)[C@@H]3[C@H]2[C@H](C1)CN3C(=O)C(F)(F)F [70(b), (1aS,3aR,6bR)-5-(1-Carbamoylmethyl-1H-tetrazol-5-ylsulphanylmethyl)-2-trifluoroacetyl-1-oxo-1a,2,3,3a,4,6b-hexahydro-1H-2,6a-diazacyclobut[cd]indene-6-carboxylic acid sodium salt] | 0.5 | 1 |  | 
9 | NC(=O)Cn1nnnc1SCC1=C(C(=O)O)N2C(=O)[C@@H]3[C@H]2[C@H](C1)CN3C=O [70(c), (1aS,3aR,6bR)-5-(1-Carbamoylmethyl-1H-tetrazol-5-ylsulphanylmethyl)-2-formyl-1-oxo-1a,2,3,3a,4,6b-hexahydro-1H-2,6a-diazacyclobut[cd]indene-6-carboxylic acid sodium salt] |  |  | 0.25 | 1
10 | CC(=O)N1C[C@H]2CC(CSc3ncccn3)=C(C(=O)O)N3C(=O)[C@@H]1[C@@H]23 [72(a), (1aS,3aR,6bR)-2-Acetyl-1-oxo-5-(pyrimidin-2-ylsulphanylmethyl)-1a,2,3,3a,4,6b-hexahydro-1H-2,6a-diazacyclobut[cd]indene-6-carboxylic acid sodium salt] | 4 | 2 |  | 
11 | O=C(O)C1=C(CSc2ncccn2)C[C@@H]2CN(C(=O)C(F)(F)F)[C@@H]3C(=O)N1[C@H]23 [72(b), (1aS,3aR,6bR)-1-Oxo-5-(pyrimidin-2-ylsulphanylmethyl)-2-trifluoroacetyl-1a,2,3,3a,4,6b-hexahydro-1H-2,6a-diazacyclobut[cd]indene-6-carboxylic acid sodium salt] | 2 | 4 |  | 
12 | CNC(=O)Cn1nnnc1SCC1=C(C(=O)O)N2C(=O)[C@@H]3[C@H]2[C@H](C1)CN3C(C)=O [74(a), (1aS,3aR,6bR)-2-Acetyl-5-(1-methylcarbamoylmethyl-1H-tetrazol-5-ylsulphanylmethyl)-1-oxo-1a,2,3,3a,4,6b-hexahydro-1H-2,6a-diazacyclobut[cd]indene-6-carboxylic acid sodium salt] | 1 | 2 |  | 
13 | CNC(=O)Cn1nnnc1SCC1=C(C(=O)O)N2C(=O)[C@@H]3[C@H]2[C@H](C1)CN3C(=O)C(F)(F)F [74(b), (1aS,3aR,6bR)-5-(1-Methylcarbamoylmethyl-1H-tetrazol-1-ylsulphanylmethyl)-1-oxo-2-trifluoroacetyl-1a,2,3,3a,4,6b-hexahydro-1H-2,6a-diazacyclobut[cd]indene-6-carboxylic acid sodium salt] | 1 | 1 |  | 
14 | CC(=O)N1C[C@H]2CC(CSc3nc[nH]n3)=C(C(=O)O)N3C(=O)[C@@H]1[C@@H]23 [76(a), (1aS,3aR,6bR)-2-Acetyl-1-oxo-5-(1H-1,2,4-triazol-3-ylsulphanylmethyl)-1a,2,3,3a,4,6b-hexahydro-1H-2,6a-diazacyclobut[cd]indene-6-carboxylic acid sodium salt] | 1 | 2 |  | 
15 | O=C(O)C1=C(CSc2nc[nH]n2)C[C@@H]2CN(C(=O)C(F)(F)F)[C@@H]3C(=O)N1[C@H]23 [76(b), (1aS,3aR,6bR)-1-Oxo-5-(1H-1,2,4-triazol-3-ylsulphanylmethyl)-2-trifluoroacetyl-1a,2,3,3a,4,6b-hexahydro-1H-2,6a-diazacyclobut[cd]indene-6-carboxylic acid sodium salt] | 0.5 | ≤ 0.25 |  | 
16 | CC(=O)N1C[C@H]2CC(CSc3nnnn3CC(=O)Nc3ccc(O)cc3)=C(C(=O)O)N3C(=O)[C@@H]1[C@@H]23 [78(a), (1aS,3aR,6bR)-2-Acetyl-5-[1-(4-hydroxy-phenylcarbamoylmethyl)-1H-tetrazol-5-ylsulphanylmethyl]-1-oxo-1a,2,3,3a,4,6b-hexahydro-1H-2,6a-diazacyclobut[cd]indene-6-carboxylic acid sodium salt] | 0.5 | 1 |  | 
17 | O=C(Cn1nnnc1SCC1=C(C(=O)O)N2C(=O)[C@@H]3[C@H]2[C@H](C1)CN3C(=O)C(F)(F)F)Nc1ccc(O)cc1 [78(b), (1aS,3aR,6bR)-5-[1-(4-Hydroxy-phenylcarbamoylmethyl)-1H-tetrazol-5-ylsulphanylmethyl]-1-oxo-2-trifluoroacetyl-1a,2,3,3a,4,6b-hexahydro-1H-2,6a-diazacyclobut[cd]indene-6-carboxylic acid sodium salt] | 1 | 1 |  | 
18 | CC(=O)N1C[C@H]2CC(CSc3nnnn3CC(=O)NCCc3ccccc3)=C(C(=O)O)N3C(=O)[C@@H]1[C@@H]23 [80(a), (1aS,3aR,6bR)-2-Acetyl-1-oxo-5-[1-(phenethylcarbamoylmethyl)-1H-tetrazol-5-ylsulphanylmethyl]-1a,2,3,3a,4,6b-hexahydro-1H-2,6a-diazacyclobut[cd]indene-6-carboxylic acid sodium salt] | 4 | 0.5 |  | 
19 | CC(=O)N1C[C@H]2CC(CN=[N+]=[N-])=C(C(=O)O)N3C(=O)[C@@H]1[C@@H]23 [83(a), (1aS,3aR,6bR)-2-Acetyl-5-azidomethyl-1-oxo-1a,2,3,3a,4,6b-hexahydro-1H-2,6a-diazacyclobut[cd]indene-6-carboxylic acid sodium salt] | 0.5 | 2 |  | 
20 | [N-]=[N+]=NCC1=C(C(=O)O)N2C(=O)[C@@H]3[C@H]2[C@H](C1)CN3C(=O)C(F)(F)F [83(b), (1aS,3aR,6bR)-5-Azidomethyl-2-trifluoroacetyl-1-oxo-1a,2,3,3a,4,6b-hexahydro-1H-2,6a-diazacyclobut[cd]indene-6-carboxylic acid sodium salt] | 0.5 | 0.5 |  | 
21 | CC(=O)N1C[C@H]2CC(CNS(C)(=O)=O)=C(C(=O)O)N3C(=O)[C@@H]1[C@@H]23 [88(a), (1aS,3aR,6bR)-2-Acetyl-5-methylsulphonylaminomethyl-1-oxo-1a,2,3,3a,4,6b-hexahydro-1H-2,6a-diazacyclobut[cd]indene-6-carboxylic acid sodium salt] | 4 | 16 |  | 
